The target of experiment [1] is Histone deacetylase 4 (Homo sapiens) (UniProt P56524). Put plainly: Inhibition of HDAC4 (unknown origin) at 10 uM using fluorogenic peptide as substrate pre-incubated for 15 mins followed by substrate addition incubated for 30 mins by fluorescence assay. The note with it: time 45.0 min.
Experiment [2] has as its system U-937. In words: Induction of cell cycle arrest in human U-937 assessed as increase accumulation of cells in G2/M phase at 5 uM incubated for 24 hrs by FACS analysis. It counts as functional, cell-based.
Experiment [3] deals with HCT-116. Put plainly: Induction of cell cycle arrest in human HCT-116 assessed as accumulation of cells in G2/M phase at 5 uM incubated for 24 hrs by FACS analysis. It is filed as functional, cell-based.
Experiment [4] deals with U-937. In words: Induction of cell cycle arrest in human U-937 assessed as decrease accumulation of cells in S phase at 5 uM incubated for 24 hrs by FACS analysis. It counts as functional, cell-based.
Experiment [5] concerns U-937. Put plainly: Cytotoxicity against human U-937 cells assessed as cell death at 5 uM incubated for 24 hrs by PI staining based FACS analysis relative to control. It counts as functional.
Experiment [6] has as its system U-937. Put plainly: Induction of cell cycle arrest in human U-937 assessed as decrease accumulation of cells in G1 phase at 5 uM incubated for 24 hrs by FACS analysis. It counts as functional, cell-based.

Drawing on ChEMBL document CHEMBL5365438, “2-Substituted 1,5-benzothiazepine-based HDAC inhibitors exert anticancer activities on human solid and acute myeloid leukemia cell lines” (Bioorg Med Chem, 2023), this text covers inhibition and Activity for 2 compounds.

The source made the active and inactive calls. The rule behind the calls is not given here.

Chain of Histone deacetylase 4 (Homo sapiens) (P56524 whole entry): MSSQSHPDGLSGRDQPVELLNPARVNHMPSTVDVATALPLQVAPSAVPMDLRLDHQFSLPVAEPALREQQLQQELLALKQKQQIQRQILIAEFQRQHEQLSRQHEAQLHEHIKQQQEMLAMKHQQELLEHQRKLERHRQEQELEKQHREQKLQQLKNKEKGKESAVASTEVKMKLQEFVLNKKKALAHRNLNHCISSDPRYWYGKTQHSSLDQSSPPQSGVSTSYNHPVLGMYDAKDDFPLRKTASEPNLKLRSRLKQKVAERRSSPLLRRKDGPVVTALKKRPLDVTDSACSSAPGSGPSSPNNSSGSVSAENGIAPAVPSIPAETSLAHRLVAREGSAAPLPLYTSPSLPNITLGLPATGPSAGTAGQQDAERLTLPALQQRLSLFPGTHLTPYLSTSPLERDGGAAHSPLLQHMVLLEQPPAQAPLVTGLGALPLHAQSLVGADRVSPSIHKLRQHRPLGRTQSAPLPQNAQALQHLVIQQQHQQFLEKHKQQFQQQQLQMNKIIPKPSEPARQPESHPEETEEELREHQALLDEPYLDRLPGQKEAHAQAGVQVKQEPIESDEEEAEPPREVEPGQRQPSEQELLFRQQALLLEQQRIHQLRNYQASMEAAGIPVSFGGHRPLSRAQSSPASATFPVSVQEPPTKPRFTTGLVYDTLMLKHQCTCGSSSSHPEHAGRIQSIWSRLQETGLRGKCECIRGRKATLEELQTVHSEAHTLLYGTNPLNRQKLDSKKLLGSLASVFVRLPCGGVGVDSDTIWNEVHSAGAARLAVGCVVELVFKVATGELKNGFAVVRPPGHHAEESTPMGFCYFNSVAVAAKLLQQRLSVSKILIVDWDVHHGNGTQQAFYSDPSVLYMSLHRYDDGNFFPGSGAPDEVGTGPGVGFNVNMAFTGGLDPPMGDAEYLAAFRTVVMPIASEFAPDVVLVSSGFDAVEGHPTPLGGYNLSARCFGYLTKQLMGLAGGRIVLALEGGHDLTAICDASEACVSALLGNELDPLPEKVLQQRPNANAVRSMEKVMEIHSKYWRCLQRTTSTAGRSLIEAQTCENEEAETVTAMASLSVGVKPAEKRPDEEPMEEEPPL

As to `O=C(NCC1(c2nc(-c3ccccc3)cs2)CCOCC1)c1cccc(-c2noc(C(F)(F)F)n2)c1`, the inhibition in experiment [1] was 99.2%.

Regarding `O=C(CCCCCCC(=O)Nc1ccccc1)NO` [VORINOSTAT], the result in experiment [2], in experiment [3], in experiment [4] and in experiment [6] was Active. Moreover, the Activity in experiment [5] is around 10%.
